In patent US20210395256A1, “TYROSINE KINASE INHIBITORS, COMPOSITIONS AND METHODS THERE OF” (Betta Pharmaceuticals Co., Ltd., priority 2018, published 2021):

Molecular target: TrkA kinase (Homo sapiens, UniProt P04629)
Assay: TrkA kinase assay (mobility shift assay)
Type: biochemical
Conditions: class symbols; read-out: Trk A Kinase IC50
Method: Example 201 TrkA Kinase Assay
Mobility shift assay was used to determine the inhibitory activity of compounds against TrkA kinase. Assay procedures are as follows:
1× Kinase base buffer (50 mM HEPES, pH 7.5; 0.0015% Brij-35)
Stop buffer (100 mM HEPES, pH 7.5; 0.015% Brij-35; 0.2% Coating Reagent #3; 50 mM EDTA)
1) Dilute the compound to 50× of the final desired highest inhibitor concentration in reaction by 100% DMSO. Transfer 100 μl of this compound dilution to a well in a 96-well plate.
2) For all compounds, transfer the compound in tubes to one well on 96-well storage plate and serially dilute the compound by transferring 30 μl to 60 μl of 100% DMSO in the next well and so forth for a total of 10 concentrations.
3) Add 100 μl of 100% DMSO to two empty wells for no compound control and no enzyme control in the same 96-well plate. Mark the plate as source plate.
4) Prepare intermediate plate
Transfer 10 μl of compound from source plate to a new 96-well plate as the intermediate plate
Add 90 µl of 1× kinase buffer to each well of the intermediate plate.
Mix the compounds in intermediate plate for 10 min on shaker.
1) Transfer 5 μl of each well from the 96-well intermediate plate to a 384-well plate in duplicates. For example, A1 of the 96-well plate is transferred to A1 and A2 of the 384-well plate. A2 of the 96-well plate is transferred to A3 and A4 of the 384-well plate, and so on.
1) Prepare 2.5× enzyme solution
Add kinase in 1× kinase base buffer.
2) Prepare 2.5× peptide solution Add FAM-labeled peptide and ATP in the 1× kinase base buffer.
3) Assay plate already contains 5 μl of compound in 10% DMSO.
4) Transfer 2.5× enzyme solution to the assay plate
Add 10 μl of 2.5× enzyme solution to each well of the 384-well assay plate.
5) Incubate at room temperature for 10 min.
6) Transfer 2.5× peptide solution to the assay plate
Add 10 μl of 2.5× peptide solution to each well of the 384-well assay plate.
Kinase reaction conditions are shown as Table 11:
7) Kinase reaction and stop
Incubate at 28° C. for specified period of time.
Add 25 μl of stop buffer to stop reaction.
1) Copy conversion data from Caliper program.
2) Convert conversion values to inhibition values.
Percent inhibition=(max-conversion)/(max-min)*100.
“max” stands for DMSO control; “min” stands for low control.
3) Fit the data in XLFit excel add-in version 5.4.0.8 to obtain IC50 values.
Equation used is: Y=Bottom+(Top-Bottom)/(1+(IC50/X)^HillSlope)

TrkA kinase, sequence (P04629 33-796): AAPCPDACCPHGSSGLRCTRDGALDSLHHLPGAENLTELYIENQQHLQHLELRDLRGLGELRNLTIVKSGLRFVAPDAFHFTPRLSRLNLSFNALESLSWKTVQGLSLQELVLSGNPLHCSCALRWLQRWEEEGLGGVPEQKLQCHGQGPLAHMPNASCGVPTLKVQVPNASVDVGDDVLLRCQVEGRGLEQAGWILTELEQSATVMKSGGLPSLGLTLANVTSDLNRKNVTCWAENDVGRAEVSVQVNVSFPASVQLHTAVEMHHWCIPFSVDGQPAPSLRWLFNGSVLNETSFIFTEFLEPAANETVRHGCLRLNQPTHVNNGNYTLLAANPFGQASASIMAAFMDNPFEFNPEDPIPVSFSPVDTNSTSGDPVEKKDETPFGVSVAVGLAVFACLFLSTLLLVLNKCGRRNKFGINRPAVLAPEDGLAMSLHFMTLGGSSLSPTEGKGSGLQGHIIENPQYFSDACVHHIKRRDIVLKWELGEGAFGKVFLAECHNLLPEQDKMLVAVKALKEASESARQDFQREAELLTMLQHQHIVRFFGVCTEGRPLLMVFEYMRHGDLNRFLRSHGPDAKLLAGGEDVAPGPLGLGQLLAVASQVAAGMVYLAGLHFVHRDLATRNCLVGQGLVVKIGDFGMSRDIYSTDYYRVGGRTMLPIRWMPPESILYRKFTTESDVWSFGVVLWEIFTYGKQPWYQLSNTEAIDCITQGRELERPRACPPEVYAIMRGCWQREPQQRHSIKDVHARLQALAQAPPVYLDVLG

| SMILES | IC50 [nM] |
| --- | --- |
| N#Cc1cc2nc(-c3cnn4ccc(N5CCC[C@@H]5c5cc(F)ccc5F)nc34)oc2cc1OC(F)(F)F [Compound 176, (R)-2-(5-(2-(2,5-difluorophenyl)pyrrolidin-1-yl)pyrazolo[1,5-a]pyrimidin-3-yl)-6-(trifluoromethoxy)benzo[d]oxazole-5-carbonitrile] | 10 to 50 |
| COc1cc2nc(-c3cnn4ccc(N5CCC[C@@H]5c5cc(F)ccc5F)nc34)nn2cc1OC [Compound 182, (R)-2-(5-(2-(2,5-difluorophenyl)pyrrolidin-1-yl)pyrazolo[1,5-a]pyrimidin-3-yl)-6,7-dimethoxy-[1,2,4]triazolo[1,5-a]pyridine] | 10 to 50 |
| OC(c1nnc(-c2cnn3ccc(N4CCC[C@@H]4c4cc(F)ccc4F)nc23)[nH]1)(C(F)(F)F)C(F)(F)F [Compound 27, (R)-2-(5-(5-(2-(2,5-difluorophenyl)pyrrolidin-1-yl)pyrazolo[1,5-a]pyrimidin-3-yl)-4H-1,2,4-triazol-3-yl)-1,1,1,3,3,3-hexafluoropropan-2-ol] | > 50 |
| Fc1ccc(F)c([C@H]2CCCN2c2ccn3ncc(-c4nc5cc(F)c(C(F)(F)F)cc5[nH]4)c3n2)c1 [Compound 139, (R)-5-(2-(2,5-difluorophenyl)pyrrolidin-1-yl)-3-(5-fluoro-6-(trifluoromethyl)-1H-benzo[d]imidazol-2-yl)pyrazolo[1,5-a]pyrimidine] | > 50 |
| Fc1ccc(F)c([C@H]2CCCN2c2ccn3ncc(-c4nnc(C5CCN5)[nH]4)c3n2)c1 (stereo partly drawn) [Compound 15, 3-(5-(azetidin-2-yl)-4H-1,2,4-triazol-3-yl)-5-((R)-2-(2,5-difluorophenyl)pyrrolidin-1-yl)pyrazolo[1,5-a]pyrimidine] | > 50 |
| OC1CCc2nc(-c3cnn4ccc(N5CCC[C@@H]5c5cc(F)ccc5F)nc34)nn2C1 (stereo partly drawn) [Compound 132, 2-(5-((R)-2-(2,5-difluorophenyl)pyrrolidin-1-yl)pyrazolo[1,5-a]pyrimidin-3-yl)-5,6,7,8-tetrahydro-[1,2,4]triazolo[1,5-a]pyridin-6-ol] | 10 to 50 |
| N#Cc1cc2nc(-c3cnn4ccc(N5CCC[C@@H]5c5cc(F)ccc5F)nc34)[nH]c2cc1N1CCC[C@H]1C#N [Compound 165, 6-((S)-2-cyanopyrrolidin-1-yl)-2-(5-((R)-2-(2,5-difluorophenyl)pyrrolidin-1-yl)pyrazolo[1,5-a]pyrimidin-3-yl)-1H-benzo[d]imidazole-5-carbonitrile] | ≤ 10 |
| O[C@@H]1C[C@](O)(c2nnc(-c3cnn4ccc(N5CCC[C@@H]5c5cc(F)ccc5F)nc34)[nH]2)C[C@@H](O)[C@H]1O [Compound 60, (1R,2S,3R,5S)-5-(5-(5-((R)-2-(2,5-difluorophenyl)pyrrolidin-1-yl)pyrazolo[1,5-a]pyrimidin-3-yl)-4H-1,2,4-triazol-3-yl)cyclohexane-1,2,3,5-tetraol] | 10 to 50 |
| Cn1c(-c2cnn3ccc(N4CCC[C@@H]4c4cc(F)ccc4F)nc23)nc2cnccc21 [Compound 124, (R)-2-(5-(2-(2,5-difluorophenyl)pyrrolidin-1-yl)pyrazolo[1,5-a]pyrimidin-3-yl)-1-methyl-1H-imidazo[4,5-c]pyridine] | 10 to 50 |
| Fc1ccc(F)c([C@H]2CCCN2c2ccn3ncc(-c4nnc(-c5ccnc(N6CCOCC6)c5)[nH]4)c3n2)c1 [Compound 6, (R)-4-(4-(5-(5-(2-(2,5-difluorophenyl)pyrrolidin-1-yl)pyrazolo[1,5-a]pyrimidin-3-yl)-4H-1,2,4-triazol-3-yl)pyridin-2-yl)morpholine] | ≤ 10 |

Results, then the compound that gave them:

| IC50 [nM] | SMILES |
| --- | --- |
| ≤ 10 | COC(=O)c1cc2[nH]c(-c3cnn4ccc(N5CCC[C@@H]5c5cc(F)ccc5F)nc34)nc2cc1C#N [Compound 152, methyl (R)-5-cyano-2-(5-(2-(2,5-difluorophenyl)pyrrolidin-1-yl)pyrazolo[1,5-a]pyrimidin-3-yl)-1H-benzo[d]imidazole-6-carboxylate] |
| ≤ 10 | CCOc1cc2[nH]c(-c3cnn4ccc(N5CCC[C@@H]5c5cc(F)ccc5F)nc34)nc2cc1C#N [Compound 140, (R)-2-(5-(2-(2,5-difluorophenyl)pyrrolidin-1-yl)pyrazolo[1,5-a]pyrimidin-3-yl)-6-ethoxy-1H-benzo[d]imidazole-5-carbonitrile] |
| ≤ 10 | COC(=O)c1ccc(F)c2nc(-c3cnn4ccc(N5CCC[C@@H]5c5cc(F)ccc5F)nc34)oc12 [Compound 175, methyl (R)-2-(5-(2-(2,5-difluorophenyl)pyrrolidin-1-yl)pyrazolo[1,5-a]pyrimidin-3-yl)-4-fluorobenzo[d]oxazole-7-carboxylate] |
| ≤ 10 | N#Cc1cc2nc(-c3cnn4ccc(N5CCC[C@@H]5c5cc(F)ccc5F)nc34)[nH]c2cc1N1CC(O)C1 [Compound 145, (R)-2-(5-(2-(2,5-difluorophenyl)pyrrolidin-1-yl)pyrazolo[1,5-a]pyrimidin-3-yl)-6-(3-hydroxyazetidin-1-yl)-1H-benzo[d]imidazole-5-carbonitrile] |
| ≤ 10 | CS(=O)(=O)c1ccc2nc(-c3cnn4ccc(N5CCC[C@@H]5c5cc(F)ccc5F)nc34)[nH]c2c1 [Compound 170, (R)-5-(2-(2,5-difluorophenyl)pyrrolidin-1-yl)-3-(6-(methylsulfonyl)-1H-benzo[d]imidazol-2-yl)pyrazolo[1,5-a]pyrimidine] |
| ≤ 10 | Oc1cc2nc(-c3cnn4ccc(N5CCC[C@@H]5c5cc(F)ccc5F)nc34)[nH]c2cc1O [Compound 117, (R)-2-(5-(2-(2,5-difluorophenyl)pyrrolidin-1-yl)pyrazolo[1,5-a]pyrimidin-3-yl)-1H-benzo[d]imidazole-5,6-diol] |
| ≤ 10 | COC(=O)c1ccc2[nH]c(-c3cnn4ccc(N5CCC[C@@H]5c5cc(F)ccc5F)nc34)cc2c1 [Compound 184, methyl (R)-2-(5-(2-(2,5-difluorophenyl)pyrrolidin-1-yl)pyrazolo[1,5-a]pyrimidin-3-yl)-1H-indole-5-carboxylate] |
| ≤ 10 | COc1ccc2nc(-c3cnn4ccc(N5CCC[C@@H]5c5cc(F)ccc5F)nc34)[nH]c2c1F [Compound 127, (R)-5-(2-(2,5-difluorophenyl)pyrrolidin-1-yl)-3-(7-fluoro-6-methoxy-1H-benzo[d]imidazol-2-yl)pyrazolo[1,5-a]pyrimidine] |
| ≤ 10 | N#Cc1cc2nc(-c3cnn4ccc(N5CCC[C@@H]5c5cc(F)ccc5F)nc34)[nH]c2cc1C(N)=O [Compound 154, (R)-5-cyano-2-(5-(2-(2,5-difluorophenyl)pyrrolidin-1-yl)pyrazolo[1,5-a]pyrimidin-3-yl)-1H-benzo[d]imidazole-6-carboxamide] |

Same assay, conditions: numeric values; read-out: Trk A Kinase IC50

| SMILES | IC50 [nM] |
| --- | --- |
| CC(C)(C)OC(=O)N1CCC1c1nnc(-c2cnn3ccc(N4CCC[C@@H]4c4cc(F)ccc4F)nc23)[nH]1 (stereo partly drawn) [Compound 20, tert-butyl 2-(5-(5-((R)-2-(2,5-difluorophenyl)pyrrolidin-1-yl)pyrazolo[1,5-a]pyrimidin-3-yl)-4H-1,2,4-triazol-3-yl)azetidine-1-carboxylate] | 47 |
| Fc1ccc(F)c([C@H]2CCCN2c2ccn3ncc(-c4nc5cc(C(F)(F)F)ncc5[nH]4)c3n2)c1 [Compound 72, (R)-2-(5-(2-(2,5-difluorophenyl)pyrrolidin-1-yl)pyrazolo[1,5-a]pyrimidin-3-yl)-6-(trifluoromethyl)-3H-imidazo[4,5-c]pyridine] | 1.4 |
| OC1CCN(c2cc(-c3nnc(-c4cnn5ccc(N6CCC[C@@H]6c6cc(F)ccc6F)nc45)[nH]3)ccn2)CC1 [Compound 2, (R)-1-(4-(5-(5-(2-(2,5-difluorophenyl)pyrrolidin-1-yl)pyrazolo[1,5-a]pyrimidin-3-yl)-4H-1,2,4-triazol-3-yl)pyridin-2-yl)piperidin-4-ol] | 0.43 |

Continued, values first:

| IC50 [nM] | SMILES |
| --- | --- |
| 0.31 | COc1cc2[nH]c(-c3cnn4ccc(N5CCC[C@@H]5c5cc(F)ccc5F)nc34)nc2cn1 [Compound 85, (R)-2-(5-(2-(2,5-difluorophenyl)pyrrolidin-1-yl)pyrazolo[1,5-a]pyrimidin-3-yl)-6-methoxy-1H-imidazo[4,5-c]pyridine] |
| 8.8 | Fc1ccc(F)c([C@H]2CCCN2c2ccn3ncc(-c4nc5cc(F)cc(Cl)c5[nH]4)c3n2)c1 [Compound 98, (R)-3-(7-chloro-5-fluoro-1H-benzo[d]imidazol-2-yl)-5-(2-(2,5-difluorophenyl)pyrrolidin-1-yl)pyrazolo[1,5-a]pyrimidine] |
| 5.3 | Fc1ccc(F)c([C@H]2CCCN2c2ccn3ncc(-c4nc5cc(F)cc(F)c5o4)c3n2)c1 [Compound 111, (R)-2-(5-(2-(2,5-difluorophenyl)pyrrolidin-1-yl)pyrazolo[1,5-a]pyrimidin-3-yl)-5,7-difluorobenzo[d]oxazole] |
